# Results taken from publication PMC5048545 (Journal of molecular biology, 2016).
# pKd: −log10 of the molar value.
# Legend:
# [1] = molecular target: T1, carboxysome-associated PII protein (CPII) (Thiomonas intermedia, UniProt D5X329); experiment: crystal structures; assay type: binding
# [2] = molecular target: T1, carboxysome-associated PII protein (CPII)
pKd [1],Compound,crystal structure; EPR titration [2]
2.74,Nc1ncnc2c1ncn2[C@@H]1O[C@H](COP(=O)(O)O)[C@@H](O)[C@H]1O [AMP],
,O=C(O)O [bicarbonate],"Bicarbonate molecules bind in nooks formed by Gly-101 and Arg-102, which immediately precede the C-loop α-helix"
